Data on 44 compounds can be found in the Biogen ADME set (Fang et al. 2023).

Converted amounts (≈) assume the structure as drawn. Bounds are passed on as bounds.

For the data set the following is noted: for aqueous solubility: pH 6.8.

For `C=CC(=O)N1CCC([C@@H]2CCNc3c(C(N)=O)c(-c4ccc(Oc5ccccc5)cc4)nn32)CC1`, the MDR1-MDCK efflux ratio turned out to be 50.8; the fraction unbound, human plasma is 0.0931; the fraction unbound, rat plasma was 0.0171; the intrinsic clearance, human liver microsomes came out at 57.8 mL/min/kg. This compound had an intrinsic clearance, rat liver microsomes of 573 mL/min/kg.

For `O=C(COc1cccc(-n2cncn2)c1)N1CCc2ccccc21`, the intrinsic clearance, human liver microsomes stood at 37.8 mL/min/kg and the intrinsic clearance, rat liver microsomes stood at 336 mL/min/kg.

For orientation: aqueous solubility means how much of the substance goes into solution per volume. The low end stands for little dissolved substance, the high end for much dissolved substance. As to `CCOCC(=O)N1CCC2(CCc3ccccc3O2)CC1`, the MDR1-MDCK efflux ratio was found to be 0.732; the intrinsic clearance, human liver microsomes stood at 10.3 mL/min/kg; the intrinsic clearance, rat liver microsomes is 818 mL/min/kg; the aqueous solubility worked out at 34.1 µg/mL (≈ 118 µM).

As to `C[C@]12CCC3=C4CCC(=O)C=C4CC[C@H]3[C@@H]1CC[C@@]2(O)CC#N`, the MDR1-MDCK efflux ratio worked out at 3.64; the intrinsic clearance, human liver microsomes was 21 mL/min/kg; the intrinsic clearance, rat liver microsomes came to 185 mL/min/kg.

For `N#Cc1ccccc1OCn1nnc2ccccc2c1=O`, the aqueous solubility is 0.65 µg/mL (≈ 2.34 µM).

Regarding `N#Cc1cccnc1NCCc1ccc(F)cc1`, the MDR1-MDCK efflux ratio stood at 0.519; the intrinsic clearance, human liver microsomes came out at 179 mL/min/kg; the intrinsic clearance, rat liver microsomes was determined as 1150 mL/min/kg; the aqueous solubility was determined as 2.69 µg/mL (≈ 11.1 µM).

Take `CN(Cc1ccc(Br)o1)C(=O)CN1CCCC1=O`: the MDR1-MDCK efflux ratio stood at 2.67; the intrinsic clearance, human liver microsomes was at most 4.74 mL/min/kg; the intrinsic clearance, rat liver microsomes worked out at 16.7 mL/min/kg; the aqueous solubility was found to be 70 µg/mL (≈ 222 µM).

In the case of `Cc1csc(-c2nnc(Nc3ccc(Oc4ncccc4-c4ccnc(N)n4)cc3)c3ccccc23)c1`, the MDR1-MDCK efflux ratio is 0.918 and the aqueous solubility is 0.76 µg/mL (≈ 1.51 µM).

Consider `Cn1c(=O)n(Cc2cccnc2)c(=O)c2ccc(C(F)(F)F)nc21`, for which the MDR1-MDCK efflux ratio is 0.645; the intrinsic clearance, human liver microsomes was at most 4.74 mL/min/kg; the intrinsic clearance, rat liver microsomes stood at 83.7 mL/min/kg.

On to `O=c1ccc(C2CC2)nn1CC1CN(CC2(O)CCCC2)C1`, for which the MDR1-MDCK efflux ratio is 12.5; the intrinsic clearance, human liver microsomes is at most 4.74 mL/min/kg; the intrinsic clearance, rat liver microsomes turned out to be 84 mL/min/kg; the aqueous solubility amounted to 52.6 µg/mL (≈ 173 µM).

Take `Cc1nccc(NC(=O)c2ccncc2Cl)c1Cl`: the MDR1-MDCK efflux ratio stood at 0.729; the intrinsic clearance, human liver microsomes turned out to be 21.2 mL/min/kg; the intrinsic clearance, rat liver microsomes worked out at 78.1 mL/min/kg.

Take `CCCCCNC(=N)N/N=C/c1c[nH]c2ccc(OC)cc12`: the MDR1-MDCK efflux ratio was determined as 72; the intrinsic clearance, human liver microsomes was 10.3 mL/min/kg; the intrinsic clearance, rat liver microsomes turned out to be 182 mL/min/kg; the aqueous solubility came out at 30.1 µg/mL (≈ 100 µM).

As for `CC(C)c1nccn1Cc1nc2ccccc2[nH]1`, the MDR1-MDCK efflux ratio was 24.4; the intrinsic clearance, human liver microsomes is at most 4.74 mL/min/kg; the intrinsic clearance, rat liver microsomes is 238 mL/min/kg.

As for `CCCn1cc(C(=O)N2CCC(c3n[nH]cc3C(=O)N3CCOCC3)CC2)cn1`, the MDR1-MDCK efflux ratio worked out at 15.3; the intrinsic clearance, human liver microsomes was at most 4.74 mL/min/kg; the intrinsic clearance, rat liver microsomes was determined as 11.4 mL/min/kg; the aqueous solubility turned out to be 54.1 µg/mL (≈ 135 µM).

In turn, `Cn1nccc1C(=O)C1CCN(C(=O)c2cccs2)CC1` returned an intrinsic clearance, human liver microsomes of 12.2 mL/min/kg and an intrinsic clearance, rat liver microsomes of 97.5 mL/min/kg.

In turn, `CC1(CNC(=O)c2cncc(C3CCNCC3)n2)CCCO1` (configuration not stated) yielded a fraction unbound, human plasma of 0.974; a fraction unbound, rat plasma of 0.912; an intrinsic clearance, human liver microsomes of at most 4.74 mL/min/kg; an intrinsic clearance, rat liver microsomes of 21.3 mL/min/kg.

Turning to `c1ccc(C2(CNc3nc4ccccc4o3)CCOCC2)cc1`, the intrinsic clearance, human liver microsomes is 129 mL/min/kg and the intrinsic clearance, rat liver microsomes is 3400 mL/min/kg.

On to `Cc1ccc(N/N=C2\C(=O)N(C)N=C2Nc2ccccc2Cl)cc1`, for which the aqueous solubility worked out at 0.5 µg/mL (≈ 1.46 µM).

As to `CSCc1c(C(=O)NC(C)C)oc2ccccc12`, the MDR1-MDCK efflux ratio was found to be 0.636; the intrinsic clearance, human liver microsomes stood at 85.1 mL/min/kg; the intrinsic clearance, rat liver microsomes was found to be 367 mL/min/kg; the aqueous solubility worked out at 27.9 µg/mL (≈ 106 µM).

Regarding `CC(C)(C)c1nc(Cn2nnc3ccccc3c2=O)no1`, the MDR1-MDCK efflux ratio is 0.68; the intrinsic clearance, human liver microsomes is at most 4.74 mL/min/kg; the intrinsic clearance, rat liver microsomes amounted to 119 mL/min/kg; the aqueous solubility is 34.7 µg/mL (≈ 122 µM).

Turning to `CCCn1ncc2ccc(C3CCCN(CC(=O)N4CCCC4)C3)nc21` (configuration not stated), the MDR1-MDCK efflux ratio was found to be 6.7; the intrinsic clearance, human liver microsomes came to 27.6 mL/min/kg; the intrinsic clearance, rat liver microsomes worked out at 289 mL/min/kg; the aqueous solubility amounted to 49.4 µg/mL (≈ 139 µM).

Take `CCc1nnc(Sc2nc3cc(C)nn3c3ccccc23)[nH]1`: the MDR1-MDCK efflux ratio is 1.21; the intrinsic clearance, human liver microsomes is 13.7 mL/min/kg; the intrinsic clearance, rat liver microsomes was 139 mL/min/kg.

With `Cc1ccc(-c2nnc([C@H]3CCN(Cc4cc5ccccc5o4)C3)o2)cc1`, the MDR1-MDCK efflux ratio was determined as 0.679; the intrinsic clearance, human liver microsomes amounted to 49.2 mL/min/kg; the intrinsic clearance, rat liver microsomes was found to be 663 mL/min/kg; the aqueous solubility was found to be 15.9 µg/mL (≈ 44.2 µM).

For the compound `Cc1cc(C)c2[nH]c(C(=O)N3CC[C@@](O)(CC(C)C)[C@@H](Oc4ccc(F)cc4)C3)c(C)c2c1`, the MDR1-MDCK efflux ratio turned out to be 4.89; the intrinsic clearance, human liver microsomes is 140 mL/min/kg; the intrinsic clearance, rat liver microsomes came to 1910 mL/min/kg.

As for `CO[C@H]1/C=C\C=C(/C)C(=O)NC2=CC(=O)C(NCCN(C)C)=C(C[C@@H](C)C[C@@H](OC)[C@@H](O)[C@@H](C)/C=C(\C)[C@H]1OC(N)=O)C2=O`, the MDR1-MDCK efflux ratio stood at 61.5; the intrinsic clearance, human liver microsomes is 21 mL/min/kg; the intrinsic clearance, rat liver microsomes is 73.6 mL/min/kg.

As for `CCOc1ccc(-c2csc(N)n2)cc1`, the MDR1-MDCK efflux ratio amounted to 0.572; the intrinsic clearance, human liver microsomes is 102 mL/min/kg; the intrinsic clearance, rat liver microsomes stood at 338 mL/min/kg; the aqueous solubility worked out at 6.55 µg/mL (≈ 29.7 µM).

Turning to `O=C([C@@H]1CCCN1C(=O)NC(c1ccccc1)c1ccccc1)N1CCCCC1`, the MDR1-MDCK efflux ratio amounted to 26.9; the intrinsic clearance, human liver microsomes came to 205 mL/min/kg; the intrinsic clearance, rat liver microsomes worked out at 867 mL/min/kg.

In the case of `COc1cc2c(cc1OC)CN(C(=O)C1CCCN(S(=O)(=O)c3ccc(F)cc3)C1)CC2` (configuration not stated), the MDR1-MDCK efflux ratio was determined as 5.4; the intrinsic clearance, human liver microsomes came out at 150 mL/min/kg; the intrinsic clearance, rat liver microsomes stood at 1220 mL/min/kg; the aqueous solubility is 7.05 µg/mL (≈ 15.2 µM).

As to `Cc1cc(NC(=O)Cn2nc(C3CC3)ccc2=O)ccc1Cl`, the MDR1-MDCK efflux ratio came to 0.894 and the aqueous solubility amounted to 0.86 µg/mL (≈ 2.71 µM).

`O=C(CN1CCCN(c2ccc(C(F)(F)F)cn2)CC1)Nc1cccc(F)c1`: the MDR1-MDCK efflux ratio was determined as 0.796; the intrinsic clearance, human liver microsomes turned out to be 120 mL/min/kg; the intrinsic clearance, rat liver microsomes came out at 967 mL/min/kg; the aqueous solubility was 30.5 µg/mL (≈ 76.9 µM).

In the case of `CCONC(=O)c1cncn1-c1ccc(F)cc1`, the MDR1-MDCK efflux ratio amounted to 2.24; the intrinsic clearance, human liver microsomes was at most 4.74 mL/min/kg; the intrinsic clearance, rat liver microsomes was at most 10.7 mL/min/kg; the aqueous solubility is 48 µg/mL (≈ 193 µM).

In the case of `CNc1ncnc2c1ncn2[C@H]1CC[C@H](NC(=O)CCCNC(=O)OC(C)(C)C)[C@H](O)[C@H]1O`, the MDR1-MDCK efflux ratio came to 3.2; the intrinsic clearance, human liver microsomes came to 5.08 mL/min/kg; the intrinsic clearance, rat liver microsomes came out at 19.9 mL/min/kg.

In the case of `COCc1ncc(CN2CCC(Oc3cccc(C)c3)CC2)cn1`, the intrinsic clearance, human liver microsomes stood at 10.2 mL/min/kg and the intrinsic clearance, rat liver microsomes stood at 131 mL/min/kg.

With `Cn1c(=O)n(C2CCCC2)c(=O)c2c(F)cccc21`, the MDR1-MDCK efflux ratio stood at 0.69; the intrinsic clearance, human liver microsomes came out at 23.3 mL/min/kg; the intrinsic clearance, rat liver microsomes is 415 mL/min/kg; the aqueous solubility was determined as 26 µg/mL (≈ 99 µM).

Consider `C=CC(=O)Nc1cccc(Oc2nc(Nc3ccc(N4CCN(C)CC4)c(F)c3)nc3[nH]ccc23)c1`, for which the MDR1-MDCK efflux ratio came out at 50.6; the fraction unbound, human plasma turned out to be 0.0109; the fraction unbound, rat plasma was found to be 0.00726; the intrinsic clearance, human liver microsomes came out at 26.8 mL/min/kg. This compound also yielded an intrinsic clearance, rat liver microsomes of 344 mL/min/kg.

Regarding `O=C(NCc1ccc(F)cc1)C1(Cc2ccc(-c3cccnc3)cc2)CCOCC1`, the MDR1-MDCK efflux ratio was determined as 4.82; the intrinsic clearance, human liver microsomes stood at 781 mL/min/kg; the intrinsic clearance, rat liver microsomes worked out at 1970 mL/min/kg; the aqueous solubility is 87.5 µg/mL (≈ 216 µM).

Take `CC(C)(CO)NCCCCn1c2ccccc2c2ccccc21`: the MDR1-MDCK efflux ratio was found to be 7.39; the intrinsic clearance, human liver microsomes worked out at 54.2 mL/min/kg; the intrinsic clearance, rat liver microsomes turned out to be 163 mL/min/kg; the aqueous solubility stood at 31.8 µg/mL (≈ 102 µM).

Consider `O=C(Nc1cc[nH]n1)c1ccc2c(c1)[nH]c(=O)n2C1CCCC1`, for which the intrinsic clearance, human liver microsomes came out at 18.1 mL/min/kg and the intrinsic clearance, rat liver microsomes is 53.5 mL/min/kg.

As to `C=CC(=O)N1CCC[C@@H](n2nc(-c3cccc(C(=O)Nc4ccc(C(C)C)c(C)c4)c3)c3c(N)ncnc32)C1`, the MDR1-MDCK efflux ratio came to 34.9 and the aqueous solubility was 0.17 µg/mL (≈ 0.325 µM).

On to `CC(C)(C)OC(=O)N1CCCC1C(=O)N1CCC(C(=O)N[C@@H](Cc2c[nH]c3ccccc23)C(=O)O)CC1` (some centres not stated), for which the fraction unbound, human plasma worked out at 0.492; the fraction unbound, rat plasma was 0.696; the intrinsic clearance, human liver microsomes is at most 4.74 mL/min/kg.

On to `CSCCc1nc(-c2cc(C)nc3cc(F)ccc23)n(CCO)n1`, for which the MDR1-MDCK efflux ratio came out at 21.8; the intrinsic clearance, human liver microsomes came to 16.9 mL/min/kg; the intrinsic clearance, rat liver microsomes was 147 mL/min/kg; the aqueous solubility stood at 24 µg/mL (≈ 69.4 µM).

On to `Cc1ccc(C(=O)NCC#Cc2ccccc2)cn1`, for which the MDR1-MDCK efflux ratio came to 0.579; the intrinsic clearance, human liver microsomes was at most 4.74 mL/min/kg; the intrinsic clearance, rat liver microsomes worked out at 18.8 mL/min/kg; the aqueous solubility was found to be 44.5 µg/mL (≈ 178 µM).

Turning to `O=C1CCCC[C@@H]2[C@H](C[C@@H](Cc3ccccc3F)N2C(=O)c2cccc3ncccc23)N1`, the MDR1-MDCK efflux ratio was 48.1; the fraction unbound, human plasma came to 0.19; the fraction unbound, rat plasma stood at 0.223; the intrinsic clearance, human liver microsomes was found to be 63.7 mL/min/kg. For the same compound, the intrinsic clearance, rat liver microsomes amounted to 400 mL/min/kg.

Consider `CCC1(O)CN(c2ncnc3c2c(Br)nn3C)C1`, for which the MDR1-MDCK efflux ratio was found to be 0.85; the intrinsic clearance, human liver microsomes was at most 4.74 mL/min/kg; the intrinsic clearance, rat liver microsomes stood at 35.2 mL/min/kg; the aqueous solubility amounted to 49.1 µg/mL (≈ 157 µM).
